Results on 1 molecule are retold here after patent publication US10869922B2 (priority 2016, dated 2020).

Assay [1] has as its system DC and CD8+T lymphocytes from OT-1 transgenic mouse. In words: DC/T lymphocyte co-culture experiment. The format is cell-based. The text has this: Co-culture DC stimulated by high NaCl concentration and OVA antigen in vitro and CFSE-labeled CD8+T lymphocytes from OT-1 transgenic mouse for 2-3 days, observe the formation of CLUSTER under white light of the microscope, detect the proliferation of CFSE-labeled CD8+T lymphocytes by flow cytometry, and detect the secretion of IL2 in the collected culturesupernatant by ELISA.

A further assay concerns DC. As to the kind of experiment: Immunofluorescence co-localization experiment. The format is cell-based, mouse. Conditions: DC treated by high NaCl concentration, FIG. 10d. The text has this: Immunofluorescence co-localization experiment: the experimental group, ibid. Fix and permeabilize DC stimulated by high NaCl concentration and fluorescent labeled OVA in vitro, and stain with organelle fluorescent protein markers of proteasome and lysosome, and observe under the confocal microscopy.

[2] abbreviates: DC treated by high NaCl concentration and OVA, co-culture 2-3 days, FIGS. 10a, b and c.

For `[Cl-].[Na+]` [NaCl, sodium chloride], in assay [1] (setting [2]), the “proliferation of specific CD8+T lymphocytes” value is “induce” and the “secretion of IL2” value is recorded as “induce”. Also, in assay [1] (high NaCl concentration, FIG. 10), the “cross antigen presentation of DC” value is recorded as “significantly improve”. The “degradation route of OVA in DC” value with DC is reported as “mostly degraded by proteasome rather than lysosome”.
